Data set [1] relates to IEC-6/TRPV1+ cells. As to the kind of experiment: CAP accumulation assay. Particulars: for accumulation of CAP after inhibitor added at 60 min: CAP alone 60 min, then SB-705498 or NOVO (5 and 10 μM), at 75 min, Figure 3E. It is filed as cell-based, rat. As to the method: The transfected cells were grown to 80% confluence in 12-well plates. […] SB-705498, RR or NOVO was then added to the medium for another 15, 30, and 60 min. […] After incubation, the medium was removed, and cell layers were washed three times with ice-cold PBS and then extracted with Membrane Protein Extraction Kit (Thermo Fisher Scientific Inc, Rockford, IL, United States), according to the manufacturer’s protocol. The cytosolic protein extracts were stored at -80°C until LC-MS/MS analysis.
The plasma samples and protein sample with 100 μL were extracted with 400 μL of methanol involving IS (verapamil 50 ng⋅mL^-1) by vortex-mix for 1 min, ultrasonic extraction for 1 h, and then centrifugation for 30 min at 15000 g. The supernatant was transferred into a borosilicate glass and 2 μL was subjected to LC-MS/MS analysis.
The LC-MS/MS system consisted of Agilent 6460 Triple Quadrupole LC/MS systems via an ESI interface. The samples were separated on an Agilent ZORBAX SB-C18 column (3.5 μm, 2.1 mm × 150 mm) and the column temperature was maintained at 30°C. The mobile phase consisted of acetonitrile and water contains 0.1% formic acid (70:30, v/v). The flow rate was 0.2 mL⋅min^-1. The ion source was an electrospray ionization interface in the positive mode. […] Other parameters were as follows: spray voltage, 4.0 kV; capillary temperature, 350°C; gas flow, 10 L⋅min^-1.

Data set [2] deals with TRPV1. The experiment in a line: TRPV1 expression in IEC-6/TRPV1+ cells (qRT-PCR, western blot, immunofluorescence). To be noted: for fluorescence intensity of TRPV1: pre-treatment 24 h, NOVO 10 μM, SB-705498 0.1 μM, Figure 2G. It is filed as cell-based, rat. As to the method:
The IEC-6/TRPV1^+ cells were cultured on coverslips in 24-well plates overnight. Briefly, cells were stimulated with NOVO (10 μM), SB-705498 (0.1 μM) for 24 h. At the end of incubation, cells were fixed with 4% paraformaldehyde in 0.1 M PBS for 20 min. The cells were then treated by 0.25% (v/v) TritonX-100 for 5 min, and washed again. Followed by blocking in 5% (v/v) horse serum for 60 min, cells were then incubated with primary antibodies for the anti-TRPV1 receptor antibody (1:1000, NB100-1617, Novus) overnight in a 4°C refrigerator. Alexa Flour® 488-conjugated goat anti-rabbit IgG (Zhongshan Goldenbridge Biotechnology) at 1:100 dilution was used as the secondary antibody that incubated cells for 60 min. Thereafter, the coverslips were mounted face down onto slides with mounting medium containing DAPI and stored at 4°C before microscopy. Fluorescence images were captured using a fluorescence microscope (Olympus, Japan).
qRT-PCR was performed to evaluate TRPV1 mRNA expression after NOVO treatment. The total RNA of the cells or tissues was isolated with an RNA isolation plus kit (Takara Shuzo, Kyoto, Japan), according to the manufacturer’s protocol. The quality of RNA was confirmed by agarose gel electrophoresis and an optical density measurement of A260/A280. The cDNAs were prepared using SYBR® Premix Ex Taq^TMII (Takara Shuzo, Kyoto, Japan) and the following primers: 5′-[…]-3′ and 5′-[…]-3′ for TRPV1, and 5′-[…]-3′, 5′-[…]-3′ for GAPDH were carried out by using the LightCycler480 System. The relative expression was calculated by the 2^-ΔΔC(t) method ([Livak and Schmittgen, 2001]).
After treatment, the cells or tissues were collected and washed with PBS. Membrane protein extracts were obtained with Membrane Protein Extraction Kit (Thermo Fisher Scientific Inc, United States), according to the manufacturer’s protocol. Protein concentrations were quantified by using the BCA Protein Assay kit (Beyotime, Shanghai, China). Equal amounts of protein were resolved by SDS-PAGE on a 10% polyacrylamide gel and transferred onto a polyvinylidene fluoride membrane. […]

Data set [3] concerns IEC-6/TRPV1- cells. The experiment in a line: CAP accumulation assay. It is filed as cell-based, rat. Particulars: 2.5-10 μM NOVO, 10 μM RR, 0.1 μM SB-705498, Figure 3D. As to the method: The transfected cells were grown to 80% confluence in 12-well plates. The experiment was divided into three parts: […] SB-705498, RR or NOVO was then added to the medium for another 15, 30, and 60 min. […] After incubation, the medium was removed, and cell layers were washed three times with ice-cold PBS and then extracted with Membrane Protein Extraction Kit (Thermo Fisher Scientific Inc, Rockford, IL, United States), according to the manufacturer’s protocol. The cytosolic protein extracts were stored at -80°C until LC-MS/MS analysis. The plasma samples and protein sample with 100 μL were extracted with 400 μL of methanol involving IS (verapamil 50 ng⋅mL^-1) by vortex-mix for 1 min, ultrasonic extraction for 1 h, and then centrifugation for 30 min at 15000 g. The supernatant was transferred into a borosilicate glass and 2 μL was subjected to LC-MS/MS analysis. The LC-MS/MS system consisted of Agilent 6460 Triple Quadrupole LC/MS systems via an ESI interface. The samples were separated on an Agilent ZORBAX SB-C18 column (3.5 μm, 2.1 mm × 150 mm) and the column temperature was maintained at 30°C. The mobile phase consisted of acetonitrile and water contains 0.1% formic acid (70:30, v/v). The flow rate was 0.2 mL⋅min^-1. The ion source was an electrospray ionization interface in the positive mode. […] Other parameters were as follows: spray voltage, 4.0 kV; capillary temperature, 350°C; gas flow, 10 L⋅min^-1.

For data set [4], the system named is IEC-6/TRPV1+ cells. As to the kind of experiment: LDH release assay (cell membrane integrity). Particulars: for LDH release: IEC-6/TRPV1+; for LDH release compared with the control: NOVO 2.5, 5, 10 μM, CAP 25 μM, RR 10 μM, SB-705498 0.1 μM, 12 and 24 h.
Method: (§1) The transfected cells were plated in 12-well plates. […] The cells were centrifuged at 1000 g for 5 min. Next, 50 μL of supernatants were aspirated and the rest of supernatants were discarded. The cells were washed twice with deionized water and then lysed by ultrasonic wave cracker. And then cell lysate and supernatants were analyzed by using LDH Release Assay Kit, according to the manufacturer’s instructions.
The test system of data set [5] is IEC-6/TRPV1- cells. The experiment in a line: LDH release assay (cell membrane integrity).
Method: as §1

As for `CO[C@@H]1[C@@H](OC(N)=O)[C@@H](O)[C@H](Oc2ccc3c(O)c(NC(=O)c4ccc(O)c(CC=C(C)C)c4)c(=O)oc3c2C)OC1(C)C` [NOVO, novobiocin], the “accumulation of CAP after inhibitor added at 60 min” value in data set [1] is “decreased immediately”. Moreover, the “accumulation of CAP, co-incubation” value in data set [1] (CAP in combination with 2.5-10 μM NOVO, vs control, Figure 3C) is recorded as “strong inhibition”; in data set [3], “did not change”. Moreover, the “accumulation of CAP in cells after 24 h pre-treatment” value in data set [1] (NOVO 2.5-10 μM 24 h prior to 25 μM CAP for 60 min, Figure 3B) is listed as “positive correlation with a decrease in the accumulation of CAP”. Besides, the “expression of TRPV1 mRNA and protein” value in data set [2] (2.5-10 μM NOVO, over 24 h, Figures 2A,B,F) was “dramatically attenuate”. Moreover, the “fluorescence intensity of TRPV1” value in data set [2] was “reduced”. The LDH release in data set [4] (1 μM, 12 h) amounted to 0.415 ± 0.169 gprot⋅mL ^-1; in data set [4] (1 μM, 24 h), 0.353 ± 0.026 gprot⋅mL ^-1; in data set [4] (5 μM, 12 h) it was 0.356 ± 0.090 gprot⋅mL ^-1; in data set [4] (5 μM, 24 h) it was 0.300 ± 0.052 gprot⋅mL ^-1; in data set [4] (10 μM, 12 h), 0.337 ± 0.005 gprot⋅mL ^-1; in data set [4] (10 μM, 24 h), 0.299 ± 0.072 gprot⋅mL ^-1. Also, the LDH release came out at 0.638 ± 0.131 gprot⋅mL ^-1 in data set [5] (1 μM, 12 h); 0.433 ± 0.127 gprot⋅mL ^-1 in data set [5] (1 μM, 24 h); 0.651 ± 0.120 gprot⋅mL ^-1 in data set [5] (5 μM, 12 h); 0.554 ± 0.103 gprot⋅mL ^-1 in data set [5] (5 μM, 24 h); 0.535 ± 0.119 gprot⋅mL ^-1 in data set [5] (10 μM, 12 h); 0.502 ± 0.106 gprot⋅mL ^-1 in data set [5] (10 μM, 24 h). In data set [4], the “LDH release compared with the control” value was “not any significant difference”.

Turning to `O=C(Nc1ccccc1Br)N[C@@H]1CCN(c2ccc(C(F)(F)F)cn2)C1` [SB-705498], in data set [1], the “accumulation of CAP after inhibitor added at 60 min” value is “decreased immediately”. Besides, the “fluorescence intensity of TRPV1” value in data set [2] is “reduced”. Besides, the “accumulation of CAP, co-incubation” value in data set [3] is “did not change”. Also, the LDH release is 0.469 ± 0.124 gprot⋅mL ^-1 in data set [4] (0.1 μM, 12 h); 0.423 ± 0.149 gprot⋅mL ^-1 in data set [4] (0.1 μM, 24 h); 0.509 ± 0.155 gprot⋅mL ^-1 in data set [5] (0.1 μM, 12 h); 0.537 ± 0.019 gprot⋅mL ^-1 in data set [5] (0.1 μM, 24 h). The “LDH release compared with the control” value in data set [4] is on record as “not any significant difference”.

(Values after PMC6196238, “Novobiocin, a Newly Found TRPV1 Inhibitor, Attenuates the Expression of TRPV1 in Rat Intestine and Intestinal Epithelial Cell Line IEC-6” (Frontiers in Pharmacology, 2018).)
